Legend:
MT-2 cells = test: Cytotoxic effect in the absence of HIV-1 (lysis of uninfected cells); type: cell-based
[1] = test system: deletion mutant of gp120 lacking the V3 loop sequence; test: Binding of CD4-binding-site mAbs to gp120 deletion mutant; parameters: species or system HIV-1
[2] = molecular target: T1, CD4 binding site of gp120 (recombinant gp120) (Human immunodeficiency virus type 1 group M subtype B, UniProt P03375); test: ELISA: binding of mAb 588D to gp120-coated wells; parameters: species or system HIV-1; conditions: mAb 588D 200 ng/well; FIG. 3
T1 construct: recombinant gp120 produced insect cells infected with a baculovirus vector; host or cells: insect cells infected with a baculovirus vector
Method: (§1) The inhibitory effect of PTP-IX and its metal derivatives on binding to gp120 of monoclonal antibodies (mAbs) specific for the V3 loop or for the CD4 binding site was measured by ELISA tests using as second antibodies horseradish peroxidase (HRP) labeled anti-mouse IgG.
The inhibitory effect of Sn-PTP-IX on the reaction between gp120 and mAb specific for the CD4 binding site on gp120 was also investigated. For this purpose, mAb 588D (obtained from the AIDS Research and Reagent Reference Program and from Dr. S. Zolla-Pazner of New York Veterans Affairs Medical Center) was used.
(§2) The inhibitory effect of PTP-IX and its metal complexes on the reaction between antibodies of distinct specificities and gp120 (or synthetic peptides derived from it) was calculated by the following formula: [formula]

[3] = test system: V3 hypervariable loop peptides from gp120 from 21 distinct HIV-1 isolates; test: ELISA: reaction of V3 hypervariable loop peptides with homologous anti-peptide antisera; type: binding; conditions: rabbit antisera diluted 1:1,000; FIG. 2
Method: as §1
Sn-PTP-IX was also tested for inhibition of the reaction between V3 hypervariable loop peptides from 21 distinct HIV-1 isolates and the corresponding homologous antipeptide antibodies. […] With respect of FIG. 2, peptide coated wells of polystyrene plates were reacted in the presence and absence of the porphyrin derivative with the respective rabbit antisera diluted 1:1,000, and the attachment of rabbit IgG was subsequently determined using horseradish peroxidase labeled anti-rabbit IgG.
as §2

[4] = versus Sn-PTP-IX; cited from earlier work

Compound | S.I. = selectivity index = CD50/ED50 (toxicity/activity) (HIV-1) | CD50 = concentration at which 50% of uninfected cells were lysed (MT-2 cells) [µg/mL] | further results
C=Cc1c(C)c2cc3[nH]c(cc4nc(cc5nc(cc1[nH]2)C(C)=C5CCC(=O)[O-])C(CCC(=O)[O-])=C4C)c(C)c3C=C.[Co+2] [Co-Protoporphyrin IX] | >6.2 | – | –
C=CC1=C(C)c2cc3[n-]c(cc4[n-]c(cc5nc(cc1n2)C(C)=C5C=C)c(C)c4CCC(=O)O)c(CCC(=O)O)c3C.[Mn+2] [Mn-Protoporphyrin IX] | >2.8 | >80 | –
C=CC1=C(C)c2cc3[nH]c(cc4nc(cc5[nH]c(cc1n2)c(C)c5CCC(=O)O)C(CCC(=O)O)=C4C)c(C)c3C=C [Protoporphyrin IX] | 7.3 | – | –
C=Cc1c2[n-]c(c1C)/C=c1\[n-]/c(c(C)c1C=C)=C\c1[n-]c(c(CCC(=O)O)c1C)C=c1[n-]/c(c(C)c1CCC(=O)O)=C\2.[Sn+4] [Sn-Protoporphyrin IX, tin protoporphyrin IX] | 33.5 | 18.0 | Inhibition of HIV-1 infection (in words) (HIV-1; compared with metal-free PTP-IX): effectively inhibited HIV-1 infection at considerably lower concentrations than did metal-free PTP-IX; Inhibition of binding of CD4-binding-site mAbs to gp120 lacking the V3 loop [1]: not observed; Inhibition of binding of mAb 588D to gp120 [2]: blocked in a concentration dependent manner; Inhibition of the reaction between V3 loop peptides and homologous antibodies [3]: inhibited
C=CC1=C(C)c2cc3[n-]c(cc4[n-]c(cc5nc(cc1n2)C(C)=C5C=C)c(C)c4CCC(=O)O)c(CCC(=O)O)c3C.[Zn+2] [Zn-Protoporphyrin IX] | >3.1 | – | ED50 values relative to Sn-PTP-IX (times higher) [4]: approximately 50 times
tin mesoporphyrin IX [Sn-Mesoporphyrin IX] | >5.6 | >20 | –

Reference: patent US6727240B1, “Methods for preventing HIV-1 or HIV-2 infection” (New York Blood Center, Inc., priority 1993, dated 2004)
